Measured values: ChEMBL document CHEMBL1145018, “Molecular basis of the antitumor activities of 2-crotonyloxymethyl-2-cycloalkenones” (J Med Chem, 2003)

Key:
Type in all cases: functional, cell-based
HT-29 [1] = test: Tested for cytotoxicity against HT-29 (MDR)cells; details: Homo sapiens
HT-29 [2] = test: Tested for cytotoxicity against HT-29 (wt)cells; details: Homo sapiens
B16 = test: Tested in vitro growth inhibition against B16 melanotic melanoma cells; details: Mus musculus

Row | SMILES | IC50 (HT-29 [1]) | IC50 (HT-29 [2]) | IC50 (B16)
1 | CC[C@]1(O)C[C@H]2CN(CCc3c([nH]c4ccccc34)[C@@](C(=O)OC)(c3cc4c(cc3OC)N(C=O)[C@H]3[C@@](O)(C(=O)OC)[C@H](OC(C)=O)[C@]5(CC)C=CCN6CC[C@]43[C@@H]65)C2)C1 [VINCRISTINE] | 17 nM | 1 nM | 
2 | C/C=C/C(=O)OCC1=CCCCCC1=O |  |  | 29 nM
3 | C/C=C/C(=O)OCC1=CCCC1=O |  |  | 144 nM
4 | C/C=C/C(=O)OCC1=CCCCC1=O | 1800 nM | 800 nM | 41 nM
